# Measured values as given in ChEMBL document CHEMBL3227982, “Synthesis of some 4-substituted 8-amino-6-methoxyquinolines as potential antimalarials” (J Med Chem, 1979).
# The source made the active and inactive calls. The calls are words filed in the database; no cut-off is given here.
# How the values were obtained:
# [1] = test system: Plasmodium berghei; assay: Antimalarial activity against blood schizonticidal Plasmodium berghei infected in mouse assessed as change in host mean survival time at 320 mg/kg; assay type: functional
# [2] = test system: Plasmodium berghei; assay: Antimalarial activity against blood schizonticidal Plasmodium berghei infected in mouse assessed as change in host mean survival time at 40 mg/kg; assay type: functional
# [3] = test system: Plasmodium berghei; assay: Antimalarial activity against blood schizonticidal Plasmodium berghei infected in mouse assessed as change in host mean survival time at 20 mg/kg; assay type: functional
# [4] = test system: Plasmodium berghei; assay: Antimalarial activity against blood schizonticidal Plasmodium berghei infected in mouse assessed as change in host mean survival time at 640 mg/kg; assay type: functional
# [5] = test system: Plasmodium berghei; assay: Antimalarial activity against blood schizonticidal Plasmodium berghei infected in mouse assessed as change in host mean survival time at 160 mg/kg; assay type: functional
# [6] = test system: Plasmodium berghei; assay: Antimalarial activity against blood schizonticidal Plasmodium berghei infected in mouse assessed as change in host mean survival time at 80 mg/kg; assay type: functional
# [7] = test system: Plasmodium cynomolgi; assay: Antimalarial activity against Plasmodium cynomolgi infected in rhesus monkey assessed as disease relapsing day at 0.5 mg/kg administered qd for 7 days via stomach tube; assay type: functional
# [8] = test system: Plasmodium cynomolgi; assay: Antimalarial activity against Plasmodium cynomolgi infected in rhesus monkey assessed as curative activity without disease relapses until 90 days at 0.75 mg/kg administered qd for 7 days via stomach tube; assay type: functional, organism-based; design: dose 0.75 mg/kg
# [9] = test system: Plasmodium cynomolgi; assay: Antimalarial activity against Plasmodium cynomolgi infected in rhesus monkey assessed as curative activity without disease relapses until 90 days at 0.375 mg/kg administered qd for 7 days via stomach tube; assay type: functional, organism-based; design: dose 0.375 mg/kg
# [10] = test system: Mus musculus; assay: Toxicity in mouse infected with blood schizonticidal Plasmodium berghei assessed as mortality at 320 mg/kg measured on days 2 to 5 after infection; assay type: organism-based; design: dose 320 mg/kg; conditions: in vivo
# [11] = test system: Mus musculus; assay: Toxicity in mouse infected with blood schizonticidal Plasmodium berghei assessed as mortality at 160 mg/kg measured on days 2 to 5 after infection; assay type: organism-based; design: dose 160 mg/kg; conditions: in vivo
# [12] = test system: Plasmodium cynomolgi; assay: Antimalarial activity against Plasmodium cynomolgi infected in rhesus monkey assessed as disease relapsing day at 0.375 mg/kg administered qd for 7 days via stomach tube; assay type: functional
# [13] = test system: Mus musculus; assay: Toxicity in mouse infected with blood schizonticidal Plasmodium berghei assessed as mortality at 640 mg/kg measured on days 2 to 5 after infection; assay type: organism-based; design: dose 640 mg/kg; conditions: in vivo
# [14] = test system: Plasmodium cynomolgi; assay: Antimalarial activity against Plasmodium cynomolgi infected in rhesus monkey assessed as disease relapsing day at 1 mg/kg administered qd for 7 days via stomach tube; assay type: functional
# [15] = test system: Plasmodium cynomolgi; assay: Antimalarial activity against Plasmodium cynomolgi infected in rhesus monkey assessed as curative activity without disease relapses until 90 days at 0.25 mg/kg administered qd for 7 days via stomach tube; assay type: functional, organism-based; design: dose 0.25 mg/kg
# [16] = test system: Plasmodium cynomolgi; assay: Antimalarial activity against Plasmodium cynomolgi infected in rhesus monkey assessed as curative activity without disease relapses until 90 days at 0.125 mg/kg administered qd for 7 days via stomach tube; assay type: functional, organism-based; design: dose 0.125 mg/kg
# [17] = test system: Plasmodium cynomolgi; assay: Antimalarial activity against Plasmodium cynomolgi infected in rhesus monkey assessed as disease relapsing day at 0.25 mg/kg administered qd for 7 days via stomach tube; assay type: functional
# [18] = test system: Mus musculus; assay: Toxicity in mouse infected with blood schizonticidal Plasmodium berghei assessed as mortality at 80 mg/kg measured on days 2 to 5 after infection; assay type: organism-based; design: dose 80 mg/kg; conditions: in vivo
# [19] = test system: Plasmodium berghei yoelii; assay: Antimalarial activity against sporozite stage of Plasmodium berghei yoelii infected in mouse assessed as curative activity at 160 mg/kg, po; assay type: functional, organism-based; design: dose 160 mg/kg
# [20] = test system: Plasmodium cynomolgi; assay: Antimalarial activity against Plasmodium cynomolgi infected in rhesus monkey assessed as disease relapsing day at 0.125 mg/kg administered qd for 7 days via stomach tube; assay type: functional
# [21] = test system: Plasmodium berghei yoelii; assay: Antimalarial activity against sporozite stage of Plasmodium berghei yoelii infected in mouse assessed as host survival at 10 to 40 mg/kg, po; assay type: functional, organism-based
# [22] = test system: Plasmodium berghei yoelii; assay: Antimalarial activity against sporozite stage of Plasmodium berghei yoelii infected in mouse assessed as host survival at 10 to 160 mg/kg, sc; assay type: functional, organism-based
# [23] = test system: Plasmodium cynomolgi; assay: Antimalarial activity against Plasmodium cynomolgi infected in rhesus monkey assessed as curative activity without disease relapses until 90 days at 1 mg/kg administered qd for 7 days via stomach tube; assay type: functional, organism-based; design: dose 1 mg/kg
SMILES,MST [1] [days],MST [2] [days],MST [3] [days],MST [4] [days],MST [5] [days],MST [6] [days],Time [7] [days],Activity [13],other results
COc1cc(NC(C)CCCN)c2nccc(CCSc3ccc(Cl)cc3)c2c1 (configuration not stated),8.9,3.3,2.3,14.6,7.7,6.3,–,–,–
COc1cc(NC(C)CCCN)c2ncccc2c1 (configuration not stated) [PRIMAQUINE],–,5,4,–,–,9.4,11,Toxic,Activity [8]: Active; Activity [9]: inactive; Activity [10]: Toxic; Activity [11]: Toxic; Time [12]: 11 days
CCc1ccnc2c(NC(C)CCCNC(C)C)cc(OC)cc12 (configuration not stated),10.5,2.3,-0.3,–,6.7,3.5,–,Toxic,–
CCc1ccnc2c(NCCCCCCN3CCN(CCO)CC3)cc(OC)cc12,4.1,0.7,0.1,–,2.5,2.7,–,Toxic,–
CCc1ccnc2c(NC(C)CCCN)cc(OC)cc12 (configuration not stated),11.5,3.8,2.8,–,6.4,5.2,28,–,Time [14]: 37 days; Activity [15]: inactive; Activity [16]: inactive; Time [17]: 7 days
CCc1ccnc2c(NCCCCCCN(CC)CC)cc(OC)cc12,6.7,1.7,0.5,7.9,5.5,3.3,–,–,–
CCc1ccnc2c(NC(C)CCCN(CC)CC)cc(OC)cc12 (configuration not stated),–,1.5,1.1,–,6.6,3.7,–,Toxic,Activity [10]: Toxic
CCc1ccnc2c(NCCCCCCN)cc(OC)cc12,–,0.8,–,–,–,4.8,–,–,Activity [11]: Toxic; Activity [18]: Toxic
C=Cc1ccnc2c(NC(C)CCCN)cc(OC)cc12 (configuration not stated),7.7,1.7,1.1,–,8.7,5.9,10,Toxic,Time [14]: 24 days; Activity [15]: inactive; Activity [10]: Toxic; Time [17]: 7 days
CCc1ccnc2c(NCCCCN)cc(OC)cc12,6.3,1.7,0.9,7.9,2.9,2.1,–,Non-toxic,–
COc1ccc(SCCc2ccnc3c(NC(C)CCCN)cc(OC)cc23)cc1 (configuration not stated),6.1,0.3,0.1,7.5,2.7,2.1,–,–,Activity [19]: Active; Time [20]: 9 days; Activity [21]: inactive; Activity [22]: inactive
COc1cc(NC(C)CCCN)c2nccc(CCSc3ccc(F)cc3)c2c1 (configuration not stated),–,–,–,–,–,–,7,–,Activity [23]: inactive; Time [14]: 6 days; Activity [15]: inactive; Time [17]: 13 days
